Assay results reported in ChEMBL document CHEMBL5131418, “Streptooctatins A and B, fusicoccane-type diterpenoids with autophagic activity from Streptomyces sp. KCB17JA11” (Bioorg Med Chem Lett, 2022).
The source made the active and inactive calls. No cut-off for these calls is given here.

How the values were obtained:
HeLa [1] = test: Cytotoxicity against human HeLa cells assessed as reduction in cell viability up to 100 uM; assay type: toxicity, cell-based
HeLa [2] = test: Induction of autophagy in human HeLa cells assessed as increase in LC3-II protein expression level at 10 to 50 uM uM incubated for 24 hrs by western blot analysis; assay type: functional, cell-based; settings: dose 10-50 µM
HeLa [3] = test: Cytotoxicity against human HeLa cells assessed as reduction in cell number at 100 uM; assay type: toxicity, cell-based
HeLa [4] = test: Induction of autophagy in human HeLa cells stably expressing EGFP-LC3 assessed as increase in EGFP-LC3 puncta formation at 25 uM incubated for 24 hrs by fluorescence microscopic analysis; assay type: functional, cell-based

SMILES	Activity (HeLa [1])	Activity (HeLa [2])	Activity (HeLa [3])	Activity (HeLa [4])
CC(C)[C@H]1CC[C@]2(C)C[C@@H]3[C@H](CO)C[C@@H](O)[C@H]3[C@@](C)(O)C/C=C/12	Non-Toxic			
CCC(=O)[C@@H](C)[C@H]1O[C@@](O)([C@H](C)C(=O)OC[C@@H](CO)[C@H]2CC[C@]3(C)C[C@@H]4[C@H](CO)C[C@@H](O)[C@H]4[C@@](C)(O)C/C=C/23)[C@H](C)C[C@H]1C	Non-Toxic	Active	Toxic	Active
CCCC(=O)[C@@H](C)[C@H]1O[C@@](O)([C@H](C)C(=O)OC[C@@H](CO)[C@H]2CC[C@]3(C)C[C@@H]4[C@H](CO)C[C@@H](O)[C@H]4[C@@](C)(O)C/C=C/23)[C@H](C)C[C@H]1C	Non-Toxic	Active	Toxic	Active
